Measurements as given in patent US20250230193A1, “CYCLIC COMPOUND HAVING SELECTIVE KRAS INHIBITORY EFFECT ON HRAS AND NRAS” (CHUGAI SEIYAKU KABUSHIKI KAISHA, priority 2022, published 2025).
*1 amine or outer side, *2 acyl side, *3 side chain or, on linkers, in order; H or OH if unused. Where a SMILES comes first, the peptide text is derived from it. Bridges are numbered along the chain shown (N, C = ends). [ ]: non-standard residue; d: D form. The star is where a group is joined. hPhe(3-Cl-4-CF3) = N[C@@H](CCc1ccc(C(F)(F)F)c(Cl)c1)C(=O)O; NPrPhe(4-CF3) = CCCN[C@@H](Cc1ccc(C(F)(F)F)cc1)C(=O)O; X38 = C[C@@H]1CN([*:1])[C@@H]1C(=O)[*:2]; NMeGly(cPent) = CN[C@H](C(=O)O)C1CCCC1; X46 = CC1(C)CN([*:1])[C@@H]1C(=O)[*:2]; Gly(cBu) = N[C@H](C(=O)O)C1CCC1; NMeD = CN[C@@H](CC(=O)O)C(=O)O; NMeL = CN[C@@H](CC(C)C)C(=O)O; X14 = N#CCN(CC(=O)[*:2])[*:1]; Morpholide = C1CN(*)CCO1; Ac5c = NC1(C(=O)O)CCCC1; NcPrGly = O=C(O)CNC1CC1; NPrGly = CCCNCC(=O)O; Sar = CNCC(=O)O

What was measured:
[1] = biological target: GDP-bound NRAS wild-type protein (Homo sapiens, UniProt P01111); experiment: Binding to NRAS by surface plasmon resonance (SPR), Single Cycle Kinetics; settings: KD ratio NRAS/KRAS, SPR
[2] = biological target: GDP-bound HRAS wild-type protein (Homo sapiens, UniProt P01112); experiment: Binding to HRAS by surface plasmon resonance (SPR), Single Cycle Kinetics; settings: KD ratio HRAS/KRAS, SPR
GDP-bound HRAS wild-type protein, sequence (P01112 whole entry): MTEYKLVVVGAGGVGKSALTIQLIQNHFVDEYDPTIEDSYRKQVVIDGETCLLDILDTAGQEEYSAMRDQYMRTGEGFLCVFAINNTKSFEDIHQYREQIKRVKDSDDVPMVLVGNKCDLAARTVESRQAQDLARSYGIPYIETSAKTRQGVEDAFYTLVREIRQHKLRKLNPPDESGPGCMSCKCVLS

GDP-bound NRAS wild-type protein, sequence (P01111 whole entry): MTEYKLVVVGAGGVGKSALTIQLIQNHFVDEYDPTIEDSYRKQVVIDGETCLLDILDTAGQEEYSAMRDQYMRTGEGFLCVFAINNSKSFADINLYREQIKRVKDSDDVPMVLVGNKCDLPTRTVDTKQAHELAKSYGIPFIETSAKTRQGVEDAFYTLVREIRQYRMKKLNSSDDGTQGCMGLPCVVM

SMILES	NRAS/KRAS (ratio of KD for GDP-bound NRAS wild-type to KD for KRAS) [1]	HRAS/KRAS (ratio of KD for GDP-bound HRAS wild-type to KD for KRAS) [2]
CCCN1C(=O)CN(C)C(=O)CN(C)C(=O)[C@H](C2CCC2)NC(=O)[C@H](CC(C)C)N(C)C(=O)C[C@@H](C(=O)N2CCOCC2)N(C)C(=O)[C@H](C2CCCC2)N(C)C(=O)C2(CCCC2)NC(=O)[C@@H]2CCCN2C(=O)[C@H](CCc2ccc(C(F)(F)F)c(Cl)c2)NC(=O)CN(C)C(=O)[C@@H]1Cc1ccc(C(F)(F)F)cc1 [PP0250] ([NMeL][Gly(cBu)][Sar][Sar][NPrPhe(4-CF3)][Sar][hPhe(3-Cl-4-CF3)]P[Ac5c][NMeGly(cPent)][NMeD]-Morpholide; lactam N-11)	B (a compound having 3 or more and less than 10 is denoted as B)	C (A compound having a KD ratio of 0.1 or more and less than 3 is denoted as C)
CCCN1C(=O)CN(C)C(=O)CN(C2CC2)C(=O)[C@H]([C@@H](C)CC)NC(=O)[C@H](CC(C)C)N(C)C(=O)C[C@@H](C(=O)N2CCOCC2)N(C)C(=O)[C@H](C2CCCC2)N(C)C(=O)C2(CCCC2)NC(=O)[C@@H]2CCCN2C(=O)[C@H](CCc2ccc(C(F)(F)F)c(Cl)c2)NC(=O)CN(C)C(=O)[C@@H]1Cc1ccc(C(F)(F)F)cc1 [PP0252] ([NMeL]I[NcPrGly][Sar][NPrPhe(4-CF3)][Sar][hPhe(3-Cl-4-CF3)]P[Ac5c][NMeGly(cPent)][NMeD]-Morpholide; lactam N-11)	B (a compound having 3 or more and less than 10 is denoted as B)	B (a compound having 3 or more and less than 10 is denoted as B)
CCCN1CC(=O)N(C)CC(=O)N(CCC)[C@@H](Cc2ccc(C(F)(F)F)cc2)C(=O)N(C)CC(=O)N[C@@H](CCc2ccc(C(F)(F)F)c(Cl)c2)C(=O)N2CCC[C@H]2C(=O)NC2(CCCC2)C(=O)N(C)[C@@H](C2CCCC2)C(=O)N(C)[C@H](C(=O)N2CCOCC2)CC(=O)N(C)[C@@H](CC(C)C)C(=O)N[C@@H]([C@@H](C)CC)C1=O [PP0253] ([NMeL]I[NPrGly][Sar][NPrPhe(4-CF3)][Sar][hPhe(3-Cl-4-CF3)]P[Ac5c][NMeGly(cPent)][NMeD]-Morpholide; lactam N-11)	B (a compound having 3 or more and less than 10 is denoted as B)	B (a compound having 3 or more and less than 10 is denoted as B)
CCCN1C(=O)CN(C)C(=O)CN(CC#N)C(=O)[C@H]([C@@H](C)CC)NC(=O)[C@H](CC(C)C)N(C)C(=O)C[C@@H](C(=O)N2CCOCC2)N(C)C(=O)[C@H](C2CCCC2)N(C)C(=O)C2(CCCC2)NC(=O)[C@@H]2CCCN2C(=O)[C@H](CCc2ccc(C(F)(F)F)c(Cl)c2)NC(=O)CN(C)C(=O)[C@@H]1Cc1ccc(C(F)(F)F)cc1 [PP0254] ([NMeL]I[X14][Sar][NPrPhe(4-CF3)][Sar][hPhe(3-Cl-4-CF3)]P[Ac5c][NMeGly(cPent)][NMeD]-Morpholide; lactam N-11)	B (a compound having 3 or more and less than 10 is denoted as B)	C (A compound having a KD ratio of 0.1 or more and less than 3 is denoted as C)
CCCN1C(=O)CN(C)C(=O)[C@H]2N(CC2(C)C)C(=O)[C@H]([C@@H](C)CC)NC(=O)[C@H](CC(C)C)N(C)C(=O)C[C@@H](C(=O)N2CCOCC2)N(C)C(=O)[C@H](C2CCCC2)N(C)C(=O)C2(CCCC2)NC(=O)[C@@H]2CCCN2C(=O)[C@H](CCc2ccc(C(F)(F)F)c(Cl)c2)NC(=O)CN(C)C(=O)[C@@H]1Cc1ccc(C(F)(F)F)cc1 [PP0256] ([NMeL]I[X46][Sar][NPrPhe(4-CF3)][Sar][hPhe(3-Cl-4-CF3)]P[Ac5c][NMeGly(cPent)][NMeD]-Morpholide; lactam N-11)	B (a compound having 3 or more and less than 10 is denoted as B)	C (A compound having a KD ratio of 0.1 or more and less than 3 is denoted as C)
CCCN1C(=O)CN(C)C(=O)[C@@H]2[C@H](C)CN2C(=O)[C@H]([C@@H](C)CC)NC(=O)[C@H](CC(C)C)N(C)C(=O)C[C@@H](C(=O)N2CCOCC2)N(C)C(=O)[C@H](C2CCCC2)N(C)C(=O)C2(CCCC2)NC(=O)[C@@H]2CCCN2C(=O)[C@H](CCc2ccc(C(F)(F)F)c(Cl)c2)NC(=O)CN(C)C(=O)[C@@H]1Cc1ccc(C(F)(F)F)cc1 [PP0257] ([NMeL]I[X38][Sar][NPrPhe(4-CF3)][Sar][hPhe(3-Cl-4-CF3)]P[Ac5c][NMeGly(cPent)][NMeD]-Morpholide; lactam N-11)	B (a compound having 3 or more and less than 10 is denoted as B)	B (a compound having 3 or more and less than 10 is denoted as B)
